Values quoted from earlier work in US20060154930A1, “Substituted amino heterocycles as vr-1 antagonists for treating pain” (priority 2003, published 2006).

Molecular target: VR1 (Rattus norvegicus, UniProt O35433)
Details: Wahl et al., Mol. Pharmacol, 59:9, 2001

VR1, sequence (O35433 whole entry): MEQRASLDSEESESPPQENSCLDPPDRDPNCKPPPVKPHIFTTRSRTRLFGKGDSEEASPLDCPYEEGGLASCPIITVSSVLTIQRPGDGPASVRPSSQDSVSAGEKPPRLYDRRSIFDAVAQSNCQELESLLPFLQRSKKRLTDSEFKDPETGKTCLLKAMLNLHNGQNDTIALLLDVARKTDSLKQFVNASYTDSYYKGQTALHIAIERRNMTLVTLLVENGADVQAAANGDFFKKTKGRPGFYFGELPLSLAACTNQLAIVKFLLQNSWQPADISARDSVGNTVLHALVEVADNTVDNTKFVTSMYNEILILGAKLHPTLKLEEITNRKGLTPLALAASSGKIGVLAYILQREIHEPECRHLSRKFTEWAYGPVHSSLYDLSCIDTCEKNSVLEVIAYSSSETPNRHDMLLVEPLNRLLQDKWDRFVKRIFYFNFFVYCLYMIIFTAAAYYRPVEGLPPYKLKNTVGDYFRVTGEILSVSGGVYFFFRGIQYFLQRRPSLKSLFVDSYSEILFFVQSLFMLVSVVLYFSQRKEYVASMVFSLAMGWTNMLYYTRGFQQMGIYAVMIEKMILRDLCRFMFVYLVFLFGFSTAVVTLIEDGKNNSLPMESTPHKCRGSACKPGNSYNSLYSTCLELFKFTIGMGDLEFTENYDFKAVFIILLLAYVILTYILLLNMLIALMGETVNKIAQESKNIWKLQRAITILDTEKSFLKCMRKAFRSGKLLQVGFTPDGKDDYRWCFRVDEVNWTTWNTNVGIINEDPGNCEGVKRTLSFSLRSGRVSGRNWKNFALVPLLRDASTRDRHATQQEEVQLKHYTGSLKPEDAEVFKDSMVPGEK

C=C(C)[C@]12C[C@@H](C)[C@@]34O[C@](Cc5ccccc5)(O[C@@H]1[C@@H]3C=C(COC(=O)Cc1cc(I)c(O)c(OC)c1)C[C@]1(O)C(=O)C(C)=C[C@@H]41)O2 [Iodo-resiniferatoxin]
VR1 antagonist potency (in words): nanomolar antagonist
